# Test results as given in patent publication US10597388B2, “Pyridazinone herbicides” (FMC CORPORATION, priority 2014, dated 2020).
# How the values were obtained:
# Format in all cases: in vivo
# [1] = tested on: barnyardgrass (Echinochloa crus-galli); test: Test A greenhouse herbicide test, pre- and postemergence
# Summary of the method: (§1)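 Seeds sown in loam–sand blend got a preemergence directed soil spray of compound in non-phytotoxic solvent with surfactant. Postemergence treatment was given at 2–10 cm, one- to two-leaf stage. After ~10 d in greenhouse, injury was rated visually vs untreated controls, 0 (no effect) to 100 (complete control).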
# [2] = tested on: corn (Zea mays); test: as above; conditions: Postemergence; for Plant response rating, Corn: 125 g ai/ha, 0 to 100 scale where 0 is no effect and 100 is complete control; for Corn plant response rating: 0 to 100 scale, 0 is no effect, 100 is complete control
# Summary of the method: as §1
# [3] = tested on: foxtail, giant (giant foxtail, Setaria faberii); test: as above
# Summary of the method: as §1
# [4] = tested on: kochia (Kochia scoparia); test: as above
# Summary of the method: as §1
# [5] = tested on: pigweed (Amaranthus retroflexus); test: as above
# Summary of the method: as §1
# [6] = tested on: ragweed (common ragweed, Ambrosia elatior); test: as above
# Summary of the method: as §1
# [7] = tested on: ryegrass, Italian (Italian ryegrass, Lolium multiflorum); test: as above
# Summary of the method: as §1
# [8] = tested on: wheat (Triticum aestivum); test: as above; conditions: Postemergence; for Plant response rating, Wheat: 125 g ai/ha, 0 to 100 scale where 0 is no effect and 100 is complete control; for Wheat plant response rating: 0 to 100 scale, 0 is no effect, 100 is complete control
# Summary of the method: as §1
# [9] = tested on: lambsquarters (Chenopodium album); test: Test C greenhouse herbicide test, pre- and postemergence
# Summary of the method: (§2)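 Two application timings: at sowing into a soil/sand blend, and on 2–18 cm seedlings in peat-vermiculite potting mix. A non-phytotoxic, surfactant-containing solvent carried the compounds. Plants were compared with controls and rated visually on 0–100 after 13–15 d.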
# [10] = tested on: nutsedge, yellow (yellow nutsedge, Cyperus esculentus); test: as above
# Summary of the method: as §2
# [11] = tested on: ryegrass, Italian (Italian ryegrass, Lolium multiflorum); test: as above
# Summary of the method: as §2
# [12] = Postemergence, 125 g ai/ha, 0 to 100 scale where 0 is no effect and 100 is complete control
# [13] = Postemergence, 500 g ai/ha, 0 to 100 scale, 0 is no effect, 100 is complete control
# [14] = Preemergence, 125 g ai/ha, 0 to 100 scale where 0 is no effect and 100 is complete control
# [15] = Preemergence, 500 g ai/ha, 0 to 100 scale, 0 no effect, 100 complete control
# [16] = Postemergence, 31 g ai/ha, 0 to 100 scale (0 no effect, 100 complete control)
# [17] = Postemergence, 125 g ai/ha, scale 0 to 100, 0 is no effect, 100 is complete control
# [18] = Postemergence, 250 g ai/ha, scale 0 to 100, 0 no effect, 100 complete control, 13 to 15 d
# [19] = Preemergence, 31 g ai/ha, scale 0 to 100, 0 is no effect, 100 is complete control
# [20] = Preemergence, 62 g ai/ha, scale 0 to 100, 0 is no effect, 100 is complete control
# [21] = Preemergence, 125 g ai/ha, scale 0 to 100, 0 is no effect, 100 is complete control
# [22] = Preemergence, 250 g ai/ha, scale 0 to 100 (0 no effect, 100 complete control)
# [23] = postemergence, 62 g ai/ha, scale 0 to 100, 0 no effect, 100 complete control
# [24] = Postemergence, 1000 g ai/ha, 0 to 100 scale, 0 is no effect, 100 is complete control
# [25] = Preemergence, 1000 g ai/ha, 0 to 100 scale, 0 no effect, 100 complete control
structure (smiles),measurement,setting,value
Cc1ccc2ccccc2c1-c1c(O)c(C)nn(C)c1=O [Compound 59],"Plant response rating, Barnyardgrass",[1]; [12],80
same,Barnyardgrass plant response rating,[1]; [13],90
same,Barnyardgrass plant response rating,[1]; [14],80
same,"Plant response rating, Barnyardgrass",[1]; [15],100
same,"Plant response rating, Corn",[2],20
same,Corn plant response rating,[2]; 500 g ai/ha,60
same,"Plant response rating, Foxtail, Giant",[3]; [12],90
same,"Foxtail, Giant plant response rating",[3]; [13],100
same,"Foxtail, Giant plant response rating",[3]; [14],90
same,"Plant response rating, Foxtail, Giant",[3]; [15],100
same,"Plant response rating, Kochia",[4]; [12],100
same,Kochia plant response rating,[4]; [13],100
same,Kochia plant response rating,[4]; [14],90
same,"Plant response rating, Kochia",[4]; [15],90
same,"Plant response rating, Pigweed",[5]; [12],100
same,Pigweed plant response rating,[5]; [13],100
same,Pigweed plant response rating,[5]; [14],100
same,"Plant response rating, Pigweed",[5]; [15],100
same,"Plant response rating, Ragweed",[6]; [12],90
same,Ragweed plant response rating,[6]; [13],100
same,Ragweed plant response rating,[6]; [14],90
same,"Plant response rating, Ragweed",[6]; [15],100
same,"Plant response rating, Ryegrass, Italian",[7]; [12],100
same,"Ryegrass, Italian plant response rating",[7]; [13],100
same,"Ryegrass, Italian plant response rating",[7]; [14],90
same,"Plant response rating, Ryegrass, Italian",[7]; [15],100
same,"Plant response rating, Wheat",[8],50
same,Wheat plant response rating,[8]; 500 g ai/ha,100
same,Lambsquarters plant response rating,[9]; [16],90
same,"Plant response rating, Lambsquarters",[9]; [17],98
same,"Plant response rating, Lambsquarters",[9]; [18],98
same,"Plant response rating, Lambsquarters",[9]; [19],70
same,"Plant response rating, Lambsquarters",[9]; [20],90
same,"Plant response rating, Lambsquarters",[9]; [21],95
same,Lambsquarters plant response rating,[9]; [22],95
same,Lambsquarters plant response rating,[9]; [23],95
same,"Nutsedge, Yellow plant response rating",[10]; [16],65
same,"Plant response rating, Nutsedge, Yellow",[10]; [17],95
same,"Plant response rating, Nutsedge, Yellow",[10]; [18],95
same,"Plant response rating, Nutsedge, Yellow",[10]; [19],80
same,"Plant response rating, Nutsedge, Yellow",[10]; [20],80
same,"Plant response rating, Nutsedge, Yellow",[10]; [21],85
same,"Nutsedge, Yellow plant response rating",[10]; [22],90
same,"Nutsedge, Yellow plant response rating",[10]; [23],85
same,"Ryegrass, Italian plant response rating",[11]; [16],85
same,"Plant response rating, Ryegrass, Italian",[11]; [17],90
same,"Plant response rating, Ryegrass, Italian",[11]; [18],95
same,"Plant response rating, Ryegrass, Italian",[11]; [19],100
same,"Plant response rating, Ryegrass, Italian",[11]; [20],100
same,"Plant response rating, Ryegrass, Italian",[11]; [21],100
same,"Ryegrass, Italian plant response rating",[11]; [22],100
same,"Ryegrass, Italian plant response rating",[11]; [23],90
Cc1ccc2ccc(C)c(-c3c(O)c(C)nn(C)c3=O)c2c1 [Compound 60],Barnyardgrass plant response rating,[1]; [24],90
same,"Plant response rating, Barnyardgrass",[1]; [25],80
same,Corn plant response rating,[2]; 1000 g ai/ha,50
same,"Foxtail, Giant plant response rating",[3]; [24],90
same,"Plant response rating, Foxtail, Giant",[3]; [25],90
same,Kochia plant response rating,[4]; [24],100
same,"Plant response rating, Kochia",[4]; [25],80
same,Pigweed plant response rating,[5]; [24],100
same,"Plant response rating, Pigweed",[5]; [25],100
same,Ragweed plant response rating,[6]; [24],100
same,"Plant response rating, Ragweed",[6]; [25],100
same,"Ryegrass, Italian plant response rating",[7]; [24],100
same,"Plant response rating, Ryegrass, Italian",[7]; [25],100
same,Wheat plant response rating,[8]; 1000 g ai/ha,70
same,Lambsquarters plant response rating,[9]; [16],85
same,"Plant response rating, Lambsquarters",[9]; [17],95
same,"Plant response rating, Lambsquarters",[9]; [18],100
same,"Plant response rating, Lambsquarters",[9]; [19],80
same,"Plant response rating, Lambsquarters",[9]; [20],85
same,"Plant response rating, Lambsquarters",[9]; [21],95
same,Lambsquarters plant response rating,[9]; [22],90
same,Lambsquarters plant response rating,[9]; [23],90
same,"Nutsedge, Yellow plant response rating",[10]; [16],85
same,"Plant response rating, Nutsedge, Yellow",[10]; [17],90
same,"Plant response rating, Nutsedge, Yellow",[10]; [18],95
same,"Plant response rating, Nutsedge, Yellow",[10]; [19],45
same,"Plant response rating, Nutsedge, Yellow",[10]; [20],45
same,"Plant response rating, Nutsedge, Yellow",[10]; [21],85
same,"Nutsedge, Yellow plant response rating",[10]; [22],85
same,"Nutsedge, Yellow plant response rating",[10]; [23],85
same,"Ryegrass, Italian plant response rating",[11]; [16],90
same,"Plant response rating, Ryegrass, Italian",[11]; [17],95
same,"Plant response rating, Ryegrass, Italian",[11]; [18],95
same,"Plant response rating, Ryegrass, Italian",[11]; [19],90
same,"Plant response rating, Ryegrass, Italian",[11]; [20],95
same,"Plant response rating, Ryegrass, Italian",[11]; [21],95
same,"Ryegrass, Italian plant response rating",[11]; [22],95
same,"Ryegrass, Italian plant response rating",[11]; [23],90
Cc1nn(C)c(=O)c(-c2c(C)sc3ccccc23)c1O [Compound 65],"Plant response rating, Barnyardgrass",[1]; [12],20
same,Barnyardgrass plant response rating,[1]; [13],90
same,Barnyardgrass plant response rating,[1]; [14],60
same,"Plant response rating, Barnyardgrass",[1]; [15],90
same,"Plant response rating, Corn",[2],0
same,Corn plant response rating,[2]; 500 g ai/ha,0
same,"Plant response rating, Foxtail, Giant",[3]; [12],20
same,"Foxtail, Giant plant response rating",[3]; [13],90
same,"Foxtail, Giant plant response rating",[3]; [14],60
same,"Plant response rating, Foxtail, Giant",[3]; [15],90
same,"Plant response rating, Kochia",[4]; [12],90
same,Kochia plant response rating,[4]; [13],90
same,Kochia plant response rating,[4]; [14],60
same,"Plant response rating, Kochia",[4]; [15],90
same,"Plant response rating, Pigweed",[5]; [12],80
same,Pigweed plant response rating,[5]; [13],90
same,Pigweed plant response rating,[5]; [14],100
same,"Plant response rating, Pigweed",[5]; [15],100
same,"Plant response rating, Ragweed",[6]; [12],50
same,Ragweed plant response rating,[6]; [13],90
same,Ragweed plant response rating,[6]; [14],70
same,"Plant response rating, Ragweed",[6]; [15],80
same,"Plant response rating, Ryegrass, Italian",[7]; [12],90
same,"Ryegrass, Italian plant response rating",[7]; [13],100
same,"Ryegrass, Italian plant response rating",[7]; [14],90
same,"Plant response rating, Ryegrass, Italian",[7]; [15],100
same,"Plant response rating, Wheat",[8],0
same,Wheat plant response rating,[8]; 500 g ai/ha,0
same,Lambsquarters plant response rating,[9]; [16],90
same,"Plant response rating, Lambsquarters",[9]; [17],95
same,"Plant response rating, Lambsquarters",[9]; [18],100
same,Lambsquarters plant response rating,[9]; [23],95
same,"Nutsedge, Yellow plant response rating",[10]; [16],25
same,"Plant response rating, Nutsedge, Yellow",[10]; [17],60
same,"Plant response rating, Nutsedge, Yellow",[10]; [18],65
same,"Nutsedge, Yellow plant response rating",[10]; [23],50
same,"Ryegrass, Italian plant response rating",[11]; [16],65
same,"Plant response rating, Ryegrass, Italian",[11]; [17],85
same,"Plant response rating, Ryegrass, Italian",[11]; [18],85
same,"Ryegrass, Italian plant response rating",[11]; [23],80
